Assay results published in patent US11320428B2, “Probe for dual-mode bio-imaging” (THE HONG KONG UNIVERSITY OF SCIENCE AND TECHNOLOGY, priority 2017, dated 2022).
pIC50: −log10 of the molar value.

Experiments:
HeLa cells [1] = test: SRS imaging in live cells; type: cell-based; conditions: 5 μM for 60 min, staining much shorter than EdU
Procedure: SRS imaging was conducted with live HeLa cells to validate a newly built SRS imaging system. The DNA of HeLa cells were pre-labeled with EdU by incubation with 100 μM of EdU in culture medium for 22 hours to ensure sufficient cell-uptake. FIGS. 7A-7D show the distributions of protein, lipid, cytochrome c and DNA in HeLa cells at 2950 cm^−1, 2845 cm^−1, 752 cm^−1, and 2125 cm^−1, respectively.
Due to the high Raman signal (RIE=6) and mitochondria targeting of AIE-SRS-Mito, AIE-SRS-Mito can serve as a mitochondrial probe for Raman microscopy. In previous reports, cytochrome c, an endogenous protein abundant in the mitochondria membrane, was used for visualization of the mitochondria. However, compared to the unclear and low-contrast image of mitochondria by cytochrome c (752 cm^−1, FIG. 7C), the SRS image of mitochondria in HeLa cells were obtained at 2223 cm^−1 with much more clear reticulum-like structures after incubated with 5 μM of AIE-SRS-Mito for 60 min (FIGS. 8A and 8C). Meanwhile, the nuclei of the Hela cells were prelabeled with EdU and imaged at 2125 cm^−1 (FIGS. 8B and 8D).

[2] = Behaviour in DMSO-water mixtures (solubility in water); type: physicochemical; conditions: aggregation/precipitation above 70 vol % water, 10 μM
Description: Then AIE-SRS-Mito was studied in DMSO-water mixtures with different water fractions. As shown in FIGS. 1C-1D, the emission peak intensity was decreased with the increase of water fraction from 0 to 70 vol % due the quenching effect of the highly polar water. […] This is a typical AIE phenomenon, as the free intramolecular rotations of the excited molecules were restricted upon aggregation, thus blocking the non-radiative decays and favoring the radiative decay. Only a slight red-shift in peak wavelength was observed and this should be attributed to the increased solution polarity by increasing water fraction. The AIE feature and TICT effect upon excitation were further verified by the theoretical calculations (FIGS. 2A-2C).

HeLa cells [3] = test: FL-SRS imaging: intracellular dye concentration from SRS intensity (ISRS=0.1567c); type: cell-based; conditions: for percentage of high concentration region (>0.5 mM) / ultimate high concentration within the cells: 20 μM; for ultimate high concentration within the cells: covering >99.5% cell area
Description: To eliminate the influence of light reflection and scattering on the baseline, SRS intensity ION at 2223 cm^−1 (resonance-on) and IOFF at 2160 cm^−1 (resonance-off) was used to calculate the SRS signal intensity ISRS=ION−IOFF. After subtracting the intrinsic ISRS=0.042 V in pure DMSO (background), a linear relationship between SRS intensity ISRS and the dye concentration c was obtained as ISRS=0.1567c with R^2=0.99944 in the plot shown in FIG. 5B. The analytical detection limit and quantification limit were calculated to be 8.5 μM and 28.4 μM, respectively, indicating the high sensitivity of the SRS system. Further, the SRS spectra of AIE-SRS-Mito were collected at different concentrations in DMSO and no obvious shifts in the peak position was found, indicating the inertness of Raman signal to the concentration change. Due to the inert response of SRS signal to the change of environment, the linear plot of ISRS=0.1567c can act further as a calibration for the intracellular dye concentration by keeping the same signal collecting condition.
At first, as shown in FIGS. 9A-9D, images of HeLa cells were collected by TPEF and SRS signals, respectively, and the merged image indicated a perfect co-localization of the intracellular distribution of the fluorescence and SRS signals, confirming the dual-modality of the probe. […] Due to the inertness of SRS signal and the linear relationship (ISRS=0.1567 c), the distribution of the dye concentration inside a single cell was further analyzed.
To examine the influence of intracellular concentration of AIE-SRS-Mito on the cells, attempts were made to increase the amounts of dye in the cells by increasing the incubation time. As shown in FIGS. 11A-11F, with the extension of incubation time, both the TPEF and SRS intensity were increased with a reduced mitochondrial selectivity. […] This can be attributed to the fact that the high concentration of cationic dyes in the mitochondria matrix will cause depolarization and increase the osmotic stress of the mitochondria, consequently leading to cell death as indicated by the results of the MTT assay (FIG. 4E). Similar results were found when increasing the dye concentration (FIGS. 12A-12F).
To further study acceptable intracellular concentrations of the dye molecules in a cell, the distribution of the dye concentration for cells was plotted. The percentages of high concentration region (>0.5 mM) were calculated to be 16.7%, 23.9% and 30.0% for the cells incubated with 20 μM of AIE-SRS-Mito for 30, 60 and 105 min, respectively. The ultimate high concentration within the cells was estimated to be 1.5, 2.0, 3.0 mM, respectively, covering >99.5% cell area. […] Such a high concentration is enough to cause the quenching of Rhodamine 123 in cells.

HeLa cells [4] = test: Fluorescence cell imaging and co-localization with Mitotracker Red FM; type: cell-based; conditions: 20 min
Procedure: For cell imaging, HeLa cells were grown overnight on a 35-mm petri dish with a cover slip. The cover slip was mounted to an iron slide with observation window. The staining solution was prepared by adding the dye stock solution (10 mM in DMSO) in to 2 mL of cell medium. Before imaging, the cells were stained with 2 mL of dye solution for a certain time and then imaged under an FL microscope (BX41 upright Microscope) using different combinations of excitation and emission filters for each dye.
To verify the mitochondrial specificity of AIE-SRS-Mito, cellular imaging was first conducted by incubating HeLa cells with 5 μM AIE-SRS-Mito for 20 min.
A co-localization experiment was then conducted using AIE-SRS-Mito and a commercial mitochondrial probe, Mitotacker Red (MTR) FM. The excitation wavelength was 330-385 nm for AIE-SRS-Mito and 540-580 nm for MTR. As shown in FIGS. 4A-4D, AIE-SRS-Mito stained the linear reticulum-like structures in cells with high contrast.

HeLa cells [5] = test: Cell viability / cytotoxicity evaluated by MTT assay; type: cell-based
Procedure: For cell culturing, HeLa cells were cultured in the MEM containing 10% FBS and antibiotics (100 units/mL penicillin and 100 µg/mL streptomycin) in a humidity incubator with an atmosphere of 5% CO2 at 37° C. and subcultured every 2-3 days.
For cell viability evaluated by MTT assay, cells were seeded in 96-well plates at a density of 10000 cells per well. After 24 h incubation, medium in each well was replaced by 100 μL fresh medium containing different concentrations of AIE-SRS-Mito. After 24 hours of treatment, into each well, 10 μL MTT solution (5 mg/mL in PBS) was added. After 4 hours of incubation, the MTT-containing solution was gently removed and replaced with 100 μL of DMSO. After agitation, the absorption of each well at 490 nm was recorded via a plate reader (Perkin-Elmer Victor3™). Each of the experiments were performed for 6 wells parallel. The background of the blank was subtracted and the cell viability of the control group was set to unity.
Cell cytotoxicity was evaluated by MTT assay (FIG. 4E). HeLa cells were incubated with different concentrations of AIE-SRS-Mito for 24 hours. For example, HeLa cells were incubated with different concentrations of AIE-SRS-Mito for 20 or 40 min and then the medium was replaced with fresh medium, followed by further incubation for 24 hours.

CC[n+]1ccc(-c2ccc(/C(C#N)=C/c3ccc(C#Cc4ccccc4)cc3)cc2)cc1 [AIE-SRS-Mito]
cell permeability (HeLa cells [1]): good cell permeability | solubility in water [2]: poor solubility | dye concentration in mitochondria matrix tolerated by cells (HeLa cells [3]; HeLa cells, with moderate cell viability): up to 3.0 mM | percentage of high concentration region (>0.5 mM) (HeLa cells [3]; HeLa, 30 min): 16.7% | ultimate high concentration within the cells (HeLa cells [3]; HeLa, 30 min): 1.5 mM | percentage of high concentration region (>0.5 mM) (HeLa cells [3]; HeLa, 60 min): 23.9% | ultimate high concentration within the cells (HeLa cells [3]; HeLa, 60 min): 2.0 mM | percentage of high concentration region (>0.5 mM) (HeLa cells [3]; HeLa, 105 min): 30.0% | ultimate high concentration within the cells (HeLa cells [3]; HeLa, 105 min): 3.0 mM | local concentration relative to incubation concentration (HeLa cells [3]; HeLa, incubation concentration 20 μM, 30 min): 75 folds | local concentration within a cell (HeLa cells [3]; single HeLa cell, 20 μM for 30 min, FIG. 10D): up to 1.5 mM | mitochondrial selectivity (overlap with Mitotracker Red FM fluorescence) (HeLa cells [4]; HeLa cells co-stained, 5 μM probe and 100 nM MTR): good mitochondrial selectivity | cell permeability (HeLa cells [4]; HeLa cells, 5 μM, fluorescence imaging, compared to synthetic precursors): good cell permeability | pIC50 (HeLa cells [5]; Homo sapiens, incubation for 24 hours, concentrations 0 to 40 μM, FIG. 4E, read-out: half maximal inhibitory concentration (IC50) of cell viability): ~5.15 | cell viability (HeLa cells [5]; treatment with <40 μM for <40 min, then fresh medium and further 24 hours): over 70%
